{"source": "PubChem BioAssay AID2060893", "about": "(Molecular Pharmacology Branch, DTP, NCI, 2025);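 further: spheroids exposed to agents for seven days before readout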", "test_system": "K86415-001-R-J1-PDC complex spheroids, viability", "experiment": "Anticancer human tumor K86415-001-R-J1-PDC patient-derived lung adenocarcinoma cell line growth inhibition [RAS]", "settings": "for IC50: curve of first compound; for viability, T/C: stronger effect = lower value", "outline": "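Multi-cell-type spheroids: tumor cells plus HUVEC endothelial cells and mesenchymal stem cells. RAS-pathway inhibitors were combined with targeted agents, each dosed in half-log steps down from clinical Cmax, or from 10 microM when Cmax was unknown.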", "data": [{"smiles": "Cc1nc(N2CCC3(CC2)COC(C)C3N)c(CO)nc1Sc1ccnc(N)c1Cl", "note": "(configuration not stated) + C#Cc1c(F)ccc2cc(O)cc(-c3ncc4c(N5CC6CCC(C5)N6)nc(OCC56CCCN5CC(F)C6)nc4c3F)c12", "values": [{"measurement": "IC50", "setting": "second compound 0.0316 µM", "result": 103, "unit": "nM"}, {"measurement": "IC50", "setting": "second compound 0.1 µM", "result": 104, "unit": "nM"}, {"measurement": "IC50", "setting": "second compound 0.316 µM", "result": 49.5, "unit": "nM"}, {"measurement": "IC50", "setting": "second compound 1 µM", "result": "< 31.6", "unit": "nM"}, {"measurement": "IC50", "setting": "second compound 3.16 µM", "result": "< 31.6", "unit": "nM"}, {"measurement": "IC50", "setting": "second compound 10 µM", "result": "< 31.6", "unit": "nM"}, {"measurement": "viability, T/C", "setting": "second compound 0.0316 µM, first compound 0.0316 µM", "result": 64.5, "unit": "%"}, {"measurement": "viability, T/C", "setting": "second compound 0.0316 µM, first compound 0.1 µM", "result": 50.2, "unit": "%"}, {"measurement": "viability, T/C", "setting": "second compound 0.0316 µM, first compound 0.316 µM", "result": 33.5, "unit": "%"}, {"measurement": "viability, T/C", "setting": "second compound 0.0316 µM, first compound 1 µM", "result": 22.3, "unit": "%"}, {"measurement": "viability, T/C", "setting": "second compound 0.0316 µM, first compound 3.16 µM", "result": 19, "unit": "%"}, {"measurement": "viability, T/C", "setting": "second compound 0.0316 µM, first compound 10 µM", "result": 17.5, "unit": "%"}, {"measurement": "viability, T/C", "setting": "second compound 0.1 µM, first compound 0.0316 µM", "result": 59.5, "unit": "%"}, {"measurement": "viability, T/C", "setting": "second compound 0.1 µM, first compound 0.1 µM", "result": 51.5, "unit": "%"}, {"measurement": "viability, T/C", "setting": "second compound 0.1 µM, first compound 0.316 µM", "result": 29.6, "unit": "%"}, {"measurement": "viability, T/C", "setting": "second compound 0.1 µM, first compound 1 µM", "result": 20, "unit": "%"}, {"measurement": "viability, T/C", "setting": "second compound 0.1 µM, first compound 3.16 µM", "result": 14.9, "unit": "%"}, {"measurement": "viability, T/C", "setting": "second compound 0.1 µM, first compound 10 µM", "result": 14, "unit": "%"}, {"measurement": "viability, T/C", "setting": "second compound 0.316 µM, first compound 0.0316 µM", "result": 54.6, "unit": "%"}, {"measurement": "viability, T/C", "setting": "second compound 0.316 µM, first compound 0.1 µM", "result": 42.8, "unit": "%"}, {"measurement": "viability, T/C", "setting": "second compound 0.316 µM, first compound 0.316 µM", "result": 21.3, "unit": "%"}, {"measurement": "viability, T/C", "setting": "second compound 0.316 µM, first compound 1 µM", "result": 13.1, "unit": "%"}, {"measurement": "viability, T/C", "setting": "second compound 0.316 µM, first compound 3.16 µM", "result": 11.4, "unit": "%"}, {"measurement": "viability, T/C", "setting": "second compound 0.316 µM, first compound 10 µM", "result": 10.8, "unit": "%"}, {"measurement": "viability, T/C", "setting": "second compound 1 µM, first compound 0.0316 µM", "result": 41.6, "unit": "%"}, {"measurement": "viability, T/C", "setting": "second compound 1 µM, first compound 0.1 µM", "result": 25.7, "unit": "%"}, {"measurement": "viability, T/C", "setting": "second compound 1 µM, first compound 0.316 µM", "result": 15.7, "unit": "%"}, {"measurement": "viability, T/C", "setting": "second compound 1 µM, first compound 1 µM", "result": 7.73, "unit": "%"}, {"measurement": "viability, T/C", "setting": "second compound 1 µM, first compound 3.16 µM", "result": 8.67, "unit": "%"}, {"measurement": "viability, T/C", "setting": "second compound 1 µM, first compound 10 µM", "result": 8.04, "unit": "%"}, {"measurement": "viability, T/C", "setting": "second compound 3.16 µM, first compound 0.0316 µM", "result": 24.1, "unit": "%"}, {"measurement": "viability, T/C", "setting": "second compound 3.16 µM, first compound 0.1 µM", "result": 13.5, "unit": "%"}, {"measurement": "viability, T/C", "setting": "second compound 3.16 µM, first compound 0.316 µM", "result": 11, "unit": "%"}, {"measurement": "viability, T/C", "setting": "second compound 3.16 µM, first compound 1 µM", "result": 7.3, "unit": "%"}, {"measurement": "viability, T/C", "setting": "second compound 3.16 µM, first compound 3.16 µM", "result": 6.6, "unit": "%"}, {"measurement": "viability, T/C", "setting": "second compound 3.16 µM, first compound 10 µM", "result": 5.45, "unit": "%"}, {"measurement": "viability, T/C", "setting": "second compound 10 µM, first compound 0.0316 µM", "result": 10.5, "unit": "%"}, {"measurement": "viability, T/C", "setting": "second compound 10 µM, first compound 0.1 µM", "result": 8.85, "unit": "%"}, {"measurement": "viability, T/C", "setting": "second compound 10 µM, first compound 0.316 µM", "result": 6.18, "unit": "%"}, {"measurement": "viability, T/C", "setting": "second compound 10 µM, first compound 1 µM", "result": 5.37, "unit": "%"}, {"measurement": "viability, T/C", "setting": "second compound 10 µM, first compound 3.16 µM", "result": 3.83, "unit": "%"}, {"measurement": "viability, T/C", "setting": "second compound 10 µM, first compound 10 µM", "result": 3.85, "unit": "%"}]}]}
